Experimental data as given in patent US20220323402A1, “TREATMENT, AMELIORATION OR PREVENTION OF A VIRAL INFECTION” (priority 2019, published 2022).

Tests used:
Pml promoter = experiment: ChIP analysis of AHR and NF-κB binding sites in the Pml promoter, ZIKV-infected HepG2 cells; assay type: cell-based, human; settings: 48 h p.i., FIGS. 26A-26D
Method: FIGS. 26A-26D: ChIP analysis of AHR (FIGS. 26A-26C) and NF-KB (FIG. 26D) binding sites in the Pml promoter. 48 h p.i. cells were fixed and ChIP was performed using AHR and NF-KB-specific antibodies or non-specific IgG. Data are mean+s.e.m. and are representative of two independent experiments.
FIG. 27: ChIP analysis of AHR binding to site 2 in Pml promoter. 48 h p.i. cells were fixed and ChIP was performed using AHR and NF-KB-specific antibodies or non-specific IgG. Data are mean+s.e.m. and are representative of two independent experiments
HepG2 cells were mock-infected or infected with ZIKV. 48 h p.i. protein-DNA complexes were cross-linked using 1% paraformaldehyde and lysed with 350 μl lysis buffer (1% SDS, 10 mM EDTA, 50 mM Tris-HCl, pH 8.1 and 1× protease inhibitor cocktail). Chromatin was sheared by sonication, supernatants were collected after centrifugation and diluted in ChIP incubation buffer (1% Triton X-100, 2 mM EDTA, 150 mM NaCl, 20 mM Tris-HCl, pH 8). 5 μg of antibody (anti-AHR or anti-NF-κB p65) was prebound to protein A- and protein G-Dynal magnetic beads (Invitrogen, USA) for 6 h with rotation at 4° C., washed three times with ice-cold 1% BSA in PBS, and finally added to the diluted chromatin. […] DNA fragments were purified with a QIAquick DNA purification kit (Qiagen, USA) and analyzed using the SYBR Green real-time PCR kit (Takara Bio Inc., USA). […]

[1] = tested on: ZIKV (Puerto Rico strain, PRVABC59); experiment: Flow cytometry quantification of HepG2 cells positive for Flavivirus antigen after ZIKV infection; assay type: cell-based, Zika virus; settings: HepG2, ZIKV PRVABC59 moi=1, 48 h, pre-treated; FIG. 7C
Method: FIGS. 7A-7K: AHR signaling boosts ZIKV replication in vitro. Flow cytometry quantification of HepG2 cells positive for Flavivirus antigen. HepG2 cells were pre-treated with different concentrations of I3S, CH223191 or DMSO (vehicle) and infected with ZIKV (moi=1) for 48 h. Plots shown are representative of one experiment. Bar graphs (FIG. 7C) represent the mean+s.e.m. of Flavivirus antigen positive cells from at least three independent experiments. P values were determined by a one-way ANOVA followed by Tukey's post-hoc test.
Stock solutions of I3S and CH223191 were prepared in DMSO, aliquoted and stored according to manufacturer's instructions. For CH223191, cells were pre-treated for 90 minutes and then used for further studies. For I3S, cells were pre-treated overnight.
Cells were fixed and permeabilized using Cytofix/Cytoperm (BD Biosciences). Secondary antibody for flow cytometry was phycoerythrin (PE) goat anti-mouse IgG (BD Biosciences) at a concentration of 1:200. Cells were analyzed on a Guava easyCyte flow cytometer and data was processed using FlowJo software.

DENV-2 = experiment: DENV viral RNA (qPCR) and viral protein (immunofluorescence) in A549 cells; assay type: cell-based, dengue virus; settings: FIGS. 64A-64B and 65A-65C
Description: FIGS. 64A and 64B: A549 cells positive for Flavivirus antigen determined by immunofluorescence. Cells infected with DENV-2 from FIG. 63C were fixed, stained against Flavivirus envelope protein and visualized under a fluorescence microscope (FIG. 64A). Images of random fields of view were acquired and the number of cells positive for Flavivirus antigen was counted using FIJI (FIG. 64B).
FIGS. 65A-65C: RNA expression of DENV-2 (FIG. 65A), AHR (FIG. 65B) and CYP1A1 (FIG. 65C) determined by qPCR. A549 cells were infected with DENV-2 (moi=0.1) and 48 h p.i. they were harvested for qPCR analysis.

Cc1ccccc1/N=N/c1ccc(NC(=O)c2ccnn2C)c(C)c1 [CH223191, 2-Methyl-2H-pyrazole-3-carboxylic Acid (2-methyl-4-o-tolylazo-phenyl)-amide]
AHR recruitment to its responsive elements in the Pml promoter (Pml promoter): decreased
recruitment of NF-κB to its responsive element in the Pml promoter (Pml promoter): increased
reduction of ZIKV replication, HepG2 cells expressing viral antigen [1]: more than 50%
DENV viral RNA and viral protein expression levels (DENV-2): inhibition
